From US8815872B2, “Macrocyclics pyrimidines as aurora kinase inhibitors” (Merck Patent GmbH, priority 2008, dated 2014)
Like-named read-outs stand apart in the source and are kept apart here.

What was measured:
[1] = snar bond
Aurora A = molecular target: T1, Aurora A (Homo sapiens, UniProt O14965); experiment: Aurora A enzyme assay (Caliper LC3000 mobility shift); type: biochemical
T1 construct: N-terminal GST fusion with full length Aurora A (1-403 amino acids); purchased Carna Biosciences 05-101
T1 sequence (O14965 1-403): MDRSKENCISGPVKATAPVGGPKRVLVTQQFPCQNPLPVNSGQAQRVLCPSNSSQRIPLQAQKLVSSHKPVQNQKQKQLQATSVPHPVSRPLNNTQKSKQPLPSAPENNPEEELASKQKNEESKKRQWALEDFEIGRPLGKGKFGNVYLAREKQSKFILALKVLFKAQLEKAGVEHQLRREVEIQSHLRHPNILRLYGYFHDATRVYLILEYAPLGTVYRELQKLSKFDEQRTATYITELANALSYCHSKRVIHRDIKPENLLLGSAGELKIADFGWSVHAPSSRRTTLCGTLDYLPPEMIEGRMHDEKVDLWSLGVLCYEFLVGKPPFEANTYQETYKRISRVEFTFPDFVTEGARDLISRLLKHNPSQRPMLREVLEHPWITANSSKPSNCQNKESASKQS
Outline: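 Full-length N-terminal GST-Aurora A (0.067 ng/µl) with 15 µM ATP and 1 µM FITC-LRRASLG peptide in 100 mM HEPES pH 7.5, 1 mM MgCl2, 1 mM DTT, 0.015% Brij-35, 90 min at 25 °C, EDTA-stopped. Off-chip mobility shift measured percent substrate conversion; IC50 from sigmoidal dose-response fit.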

Aurora B = Aurora B (Homo sapiens, UniProt Q96GD4); experiment: Aurora B enzyme assay (Caliper); type: biochemical
Chain of Aurora B (Q96GD4 whole entry): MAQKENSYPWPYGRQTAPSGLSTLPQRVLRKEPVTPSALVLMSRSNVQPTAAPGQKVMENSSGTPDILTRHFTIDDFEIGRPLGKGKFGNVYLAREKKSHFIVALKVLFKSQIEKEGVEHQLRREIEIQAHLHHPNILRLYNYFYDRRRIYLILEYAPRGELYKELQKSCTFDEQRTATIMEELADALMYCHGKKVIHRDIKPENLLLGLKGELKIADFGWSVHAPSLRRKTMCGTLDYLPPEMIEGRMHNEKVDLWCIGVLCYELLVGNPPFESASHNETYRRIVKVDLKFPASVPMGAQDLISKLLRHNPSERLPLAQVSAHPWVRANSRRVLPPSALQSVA
Outline: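 Kinase activity was measured by microfluidic mobility-shift separation of phosphorylated and unphosphorylated fluorescently labelled substrate peptide at the end of the enzymatic reaction. Product and substrate were resolved by their charge difference and detected by fluorescence.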

A549 = experiment: Cellular activity A549; type: cell-based; conditions: Homo sapiens
Outline: (§1)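 Cultured cells were exposed to compounds at various concentrations for roughly one hour to one week, enough to induce cell death or inhibit migration. Viable cells remaining after treatment were then counted.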

MiaPaca2 = experiment: Cellular activity MiaPaca2; type: cell-based; conditions: Homo sapiens, MIA PaCa-2
Outline: as §1

[2] = molecular target: kinases (not incl. Aurora); experiment: Kinase inhibition profile (not incl. Aurora); type: biochemical; conditions: at 1 μM; hit means >79% inhibition
Method: (§2) The Aurora and other kinase assays described here were performed on two Caliper Life Sciences systems, the LC3000 and the Desktop Profiler. These provide data on enzyme activity via measurement of the relative amounts of phosphorylated or unphosphorylated fluorescently labelled substrate peptide at the end of an enzymatic reaction. These different states of peptide are resolved by applying a potential difference across the sample. The presence of a charged phosphate group on the product (as opposed to the substrate) causes a different peptide mobility between the two peptides. This is visualized by excitation of a fluorescent label on the substrate and product peptides and represented as peaks within the analysis software.
The Desktop Profiler utilizes the same principal as the LC 3000 for calculating percentage conversion of a substrate to product. Caliper Life Sciences provided proprietary flash frozen pre-made 384 well plates containing selected kinases. Each column in the 384 well plate contained a particular selected kinase. A second plate, the ‘substrate plate’ contained a mix of fluorescently labeled peptide substrate and ATP. These were arranged in columns so that transfer for substrate plate to enzyme plate provided the correct enzyme with the correct substrate/ATP concentration.
Compounds were added to a thawed enzyme plate in the desired format, in single concentrations. Reactions were initiated by transfer of the ubstrate/ATP mix from the substrate plate. The enzyme plate was incubated for 90 mins at 25 °C. The reaction was stopped by addition of […] of Stop Buffer (100 mM HEPES pH 7.5, 0.015% Brij-35, 10 mM EDTA (Sigma, E7889)).
Plates were read in a manner identical to that of the LC3000, and the ratio between substrate and product peaks provided the activity of the enzyme in that well. This was best represented by a plate heat map which colors each well by percent inhibition as compared to positive and negative controls (no inhibitors and no ATP respectively).

FAK(h) = molecular target: T2, FAK(h) (Homo sapiens, UniProt Q05397); experiment: Inhibition of other kinases IC50 (Table 2); type: biochemical
T2 construct: purchased Caliper Life Sciences
T2 sequence (Q05397 whole entry): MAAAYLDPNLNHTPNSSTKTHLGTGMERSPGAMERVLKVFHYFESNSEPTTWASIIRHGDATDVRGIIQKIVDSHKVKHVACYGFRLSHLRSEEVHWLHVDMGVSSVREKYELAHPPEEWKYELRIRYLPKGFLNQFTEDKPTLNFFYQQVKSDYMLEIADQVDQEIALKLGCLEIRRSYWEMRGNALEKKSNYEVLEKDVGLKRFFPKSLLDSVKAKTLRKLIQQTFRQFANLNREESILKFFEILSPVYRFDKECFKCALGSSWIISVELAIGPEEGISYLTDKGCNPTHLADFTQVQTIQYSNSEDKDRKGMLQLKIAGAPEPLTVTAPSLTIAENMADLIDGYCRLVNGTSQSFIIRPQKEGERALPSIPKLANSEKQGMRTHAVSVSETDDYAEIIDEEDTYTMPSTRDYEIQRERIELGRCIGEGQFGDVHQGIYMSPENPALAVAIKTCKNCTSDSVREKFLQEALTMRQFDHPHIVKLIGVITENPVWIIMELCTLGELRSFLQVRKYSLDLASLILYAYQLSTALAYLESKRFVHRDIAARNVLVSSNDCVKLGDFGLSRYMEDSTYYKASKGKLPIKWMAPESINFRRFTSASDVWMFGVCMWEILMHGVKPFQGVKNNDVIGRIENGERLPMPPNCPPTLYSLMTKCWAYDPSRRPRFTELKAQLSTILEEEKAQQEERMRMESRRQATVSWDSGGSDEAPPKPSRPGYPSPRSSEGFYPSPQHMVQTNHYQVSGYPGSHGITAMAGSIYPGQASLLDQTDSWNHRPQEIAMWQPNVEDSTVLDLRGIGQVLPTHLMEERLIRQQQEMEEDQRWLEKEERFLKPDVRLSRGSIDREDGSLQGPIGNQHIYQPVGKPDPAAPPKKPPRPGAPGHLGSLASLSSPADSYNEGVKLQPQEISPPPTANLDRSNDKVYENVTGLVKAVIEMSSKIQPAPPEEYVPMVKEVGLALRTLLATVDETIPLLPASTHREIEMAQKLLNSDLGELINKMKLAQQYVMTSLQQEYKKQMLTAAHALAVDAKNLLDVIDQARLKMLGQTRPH
Method: as §2

IRAK4(h) = molecular target: T3, IRAK4(h) (Homo sapiens, UniProt Q9NWZ3); experiment: Inhibition of other kinases IC50 (Table 2); type: biochemical
T3 construct: purchased Caliper Life Sciences
T3 sequence (Q9NWZ3 1-460): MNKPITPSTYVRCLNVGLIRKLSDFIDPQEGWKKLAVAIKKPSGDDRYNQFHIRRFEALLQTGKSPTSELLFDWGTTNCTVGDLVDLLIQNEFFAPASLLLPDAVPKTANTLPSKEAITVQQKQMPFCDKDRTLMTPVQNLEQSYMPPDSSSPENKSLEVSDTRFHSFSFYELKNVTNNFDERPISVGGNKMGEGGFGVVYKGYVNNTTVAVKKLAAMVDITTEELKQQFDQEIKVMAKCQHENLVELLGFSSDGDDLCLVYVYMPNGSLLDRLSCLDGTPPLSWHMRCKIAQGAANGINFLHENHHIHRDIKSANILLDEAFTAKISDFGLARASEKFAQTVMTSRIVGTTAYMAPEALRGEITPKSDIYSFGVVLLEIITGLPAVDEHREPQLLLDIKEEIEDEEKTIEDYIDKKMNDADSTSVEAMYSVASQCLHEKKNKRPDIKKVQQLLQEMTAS
Method: as §2

Pyk2(h) = molecular target: T4, Pyk2(h) (Homo sapiens, UniProt Q14289); experiment: Inhibition of other kinases IC50 (Table 2); type: biochemical
T4 construct: purchased Caliper Life Sciences
T4 sequence (Q14289 whole entry): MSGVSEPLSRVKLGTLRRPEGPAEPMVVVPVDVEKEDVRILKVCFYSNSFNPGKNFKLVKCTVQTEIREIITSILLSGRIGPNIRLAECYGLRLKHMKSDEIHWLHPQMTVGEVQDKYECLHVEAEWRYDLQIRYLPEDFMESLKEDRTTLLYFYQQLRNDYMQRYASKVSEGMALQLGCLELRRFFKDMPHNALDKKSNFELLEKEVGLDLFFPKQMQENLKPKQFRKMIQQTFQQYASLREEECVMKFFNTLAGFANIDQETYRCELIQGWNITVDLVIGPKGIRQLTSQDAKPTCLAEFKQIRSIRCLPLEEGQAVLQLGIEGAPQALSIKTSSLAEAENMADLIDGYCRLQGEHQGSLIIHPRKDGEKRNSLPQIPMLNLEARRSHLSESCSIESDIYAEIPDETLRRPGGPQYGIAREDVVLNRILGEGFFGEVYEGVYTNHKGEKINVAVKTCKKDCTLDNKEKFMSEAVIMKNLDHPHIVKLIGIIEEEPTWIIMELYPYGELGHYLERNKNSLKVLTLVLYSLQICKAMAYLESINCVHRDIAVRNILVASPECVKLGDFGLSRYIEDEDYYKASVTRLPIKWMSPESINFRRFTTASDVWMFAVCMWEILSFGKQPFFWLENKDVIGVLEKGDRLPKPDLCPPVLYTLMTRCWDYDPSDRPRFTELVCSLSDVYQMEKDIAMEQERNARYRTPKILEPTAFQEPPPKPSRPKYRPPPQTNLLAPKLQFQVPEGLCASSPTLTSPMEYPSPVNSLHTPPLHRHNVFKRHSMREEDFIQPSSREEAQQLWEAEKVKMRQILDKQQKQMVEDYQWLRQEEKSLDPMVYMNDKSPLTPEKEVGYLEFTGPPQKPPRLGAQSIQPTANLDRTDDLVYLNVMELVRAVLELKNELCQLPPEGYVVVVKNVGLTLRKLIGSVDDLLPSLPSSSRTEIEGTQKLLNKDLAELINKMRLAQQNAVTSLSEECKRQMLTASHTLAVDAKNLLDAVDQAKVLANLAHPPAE
Method: as §2

Ret(h) = molecular target: T5, Ret(h) (Homo sapiens, UniProt P07949); experiment: Inhibition of other kinases IC50 (Table 2); type: biochemical
T5 construct: purchased Caliper Life Sciences
T5 sequence (P07949 29-1114): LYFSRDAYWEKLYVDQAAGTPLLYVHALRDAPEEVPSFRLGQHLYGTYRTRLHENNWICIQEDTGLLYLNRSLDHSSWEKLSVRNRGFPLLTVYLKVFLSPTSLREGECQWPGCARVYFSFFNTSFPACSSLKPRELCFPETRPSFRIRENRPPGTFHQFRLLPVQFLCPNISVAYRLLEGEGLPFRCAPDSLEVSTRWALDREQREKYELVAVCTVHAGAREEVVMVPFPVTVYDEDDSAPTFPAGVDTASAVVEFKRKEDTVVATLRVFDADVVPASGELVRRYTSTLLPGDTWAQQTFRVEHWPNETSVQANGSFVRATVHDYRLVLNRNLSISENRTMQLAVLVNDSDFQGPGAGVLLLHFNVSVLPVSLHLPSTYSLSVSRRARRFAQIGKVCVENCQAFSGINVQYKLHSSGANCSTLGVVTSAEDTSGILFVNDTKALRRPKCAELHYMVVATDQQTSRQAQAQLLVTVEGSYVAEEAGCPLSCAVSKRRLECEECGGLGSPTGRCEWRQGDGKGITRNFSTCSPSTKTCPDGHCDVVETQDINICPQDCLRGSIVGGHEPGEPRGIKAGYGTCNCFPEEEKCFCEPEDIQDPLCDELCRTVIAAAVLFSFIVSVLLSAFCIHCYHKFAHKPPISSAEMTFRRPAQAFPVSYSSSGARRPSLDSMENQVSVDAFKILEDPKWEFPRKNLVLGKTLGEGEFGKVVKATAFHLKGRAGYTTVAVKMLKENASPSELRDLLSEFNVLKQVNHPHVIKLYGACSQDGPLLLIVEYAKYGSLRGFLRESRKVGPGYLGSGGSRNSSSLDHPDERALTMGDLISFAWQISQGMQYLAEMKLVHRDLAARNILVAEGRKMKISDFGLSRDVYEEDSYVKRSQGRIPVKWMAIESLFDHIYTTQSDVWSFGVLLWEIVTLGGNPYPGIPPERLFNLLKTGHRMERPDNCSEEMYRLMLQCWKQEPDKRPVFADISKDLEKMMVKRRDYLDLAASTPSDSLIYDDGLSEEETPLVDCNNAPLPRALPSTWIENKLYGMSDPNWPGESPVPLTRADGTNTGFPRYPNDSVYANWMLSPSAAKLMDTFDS
Method: as §2

Tie2(h) = molecular target: T6, Tie2(h) (Homo sapiens, UniProt Q02763); experiment: Inhibition of other kinases IC50 (Table 2); type: biochemical
T6 construct: purchased Caliper Life Sciences
T6 sequence (Q02763 23-1124): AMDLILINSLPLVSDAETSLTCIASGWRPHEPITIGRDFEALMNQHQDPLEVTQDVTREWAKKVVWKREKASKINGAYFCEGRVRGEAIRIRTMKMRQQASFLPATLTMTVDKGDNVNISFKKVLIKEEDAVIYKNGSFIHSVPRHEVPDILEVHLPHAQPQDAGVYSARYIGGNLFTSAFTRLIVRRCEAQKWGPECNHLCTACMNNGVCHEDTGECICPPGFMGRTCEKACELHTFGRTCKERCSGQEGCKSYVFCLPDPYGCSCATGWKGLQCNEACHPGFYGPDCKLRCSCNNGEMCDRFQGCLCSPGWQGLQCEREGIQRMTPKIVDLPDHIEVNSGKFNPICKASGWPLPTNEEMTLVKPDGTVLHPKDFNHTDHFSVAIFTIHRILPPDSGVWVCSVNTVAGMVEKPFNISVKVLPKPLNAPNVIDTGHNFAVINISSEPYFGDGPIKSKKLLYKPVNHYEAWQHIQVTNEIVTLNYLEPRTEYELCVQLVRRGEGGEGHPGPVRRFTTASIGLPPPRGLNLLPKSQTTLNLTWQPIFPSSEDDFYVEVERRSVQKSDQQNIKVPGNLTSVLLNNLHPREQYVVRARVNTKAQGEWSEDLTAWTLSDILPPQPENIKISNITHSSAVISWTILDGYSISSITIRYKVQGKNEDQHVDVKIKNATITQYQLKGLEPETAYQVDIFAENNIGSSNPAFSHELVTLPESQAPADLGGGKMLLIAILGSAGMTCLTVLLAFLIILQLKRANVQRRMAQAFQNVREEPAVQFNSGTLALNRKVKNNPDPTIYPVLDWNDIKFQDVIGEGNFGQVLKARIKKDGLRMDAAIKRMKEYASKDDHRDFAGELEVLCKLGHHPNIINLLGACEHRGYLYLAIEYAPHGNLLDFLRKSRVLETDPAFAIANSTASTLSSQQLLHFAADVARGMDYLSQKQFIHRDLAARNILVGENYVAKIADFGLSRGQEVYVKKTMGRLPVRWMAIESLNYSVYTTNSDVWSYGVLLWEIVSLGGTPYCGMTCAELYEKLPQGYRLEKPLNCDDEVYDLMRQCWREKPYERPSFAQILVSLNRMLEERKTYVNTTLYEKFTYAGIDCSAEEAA
Method: as §2

Structure (SMILES) | IC50 (Aurora A) [nM] | IC50 (Aurora B) [nM] | IC50 (A549) [nM] | IC50 (MiaPaca2) [nM] | also measured
NC(=O)[C@H]1[C@@H]2CC3CNCc4cccc(c4)Nc4ncc(F)c(n4)N[C@@H]1[C@@H]3C2 (stereo partly drawn) | 101 to 1000 | 1 to 100 | 1 to 100 | 1 to 100 | ring closure, yield of all isomers ([1]; from NC(=O)[C@H]1[C@@H]2CC(CNCc3cccc(N)c3)[C@@H](C2)[C@H]1Nc1nc(Cl)ncc1F): 7.6%; Kinase Inhibition Profile (not incl. Aurora) # kinases hit/# kinases tested [2]: 1/50 at 1 μM
CN1Cc2cccc(c2)Nc2ncc(F)c(n2)N[C@@H]2[C@@H]3C[C@@H](C[C@H]3C1)[C@@H]2C(N)=O | 1000 to 6250 | 1 to 100 |  |  | ring closure, yield of all isomers ([1]; from CN(Cc1cccc(N)c1)C[C@@H]1C[C@@H]2C[C@H]1[C@@H](Nc1nc(Cl)ncc1F)[C@H]2C(N)=O): 5.5%
CN1CCN(c2ccc3cc2CNC[C@@H]2C[C@@H]4C[C@H]2[C@@H](Nc2nc(ncc2F)N3)[C@H]4C(N)=O)CC1 | 101 to 1000 | 1 to 100 |  |  | ring closure, yield of all isomers ([1]; from CN1CCN(c2ccc(N)cc2CNC[C@@H]2C[C@@H]3C[C@H]2[C@@H](Nc2nc(Cl)ncc2F)[C@H]3C(N)=O)CC1, HCl): 24.9%
NC(=O)[C@H]1[C@@H]2CC3CNCCc4cccc(c4)Nc4ncc(F)c(n4)N[C@@H]1[C@@H]3C2 (stereo partly drawn) | 101 to 1000 | 1 to 100 | 101 to 1000 | 101 to 1000 | ring closure, yield of all isomers ([1]; from NC(=O)[C@H]1[C@@H]2CC(CNCCc3cccc(N)c3)[C@@H](C2)[C@H]1Nc1nc(Cl)ncc1F): 18.5%; Kinase Inhibition Profile (not incl. Aurora) # kinases hit/# kinases tested [2]: 1/53 at 1 μM
NC(=O)[C@H]1[C@@H]2CC3CNC(=O)Nc4cccc(c4)Nc4ncc(F)c(n4)N[C@@H]1[C@@H]3C2 (stereo partly drawn) | 101 to 1000 | 101 to 1000 | > 6250 | 1000 to 6250 | ring closure, yield of all isomers ([1]; from NC(=O)[C@H]1[C@@H]2CC(CNC(=O)Nc3cccc(N)c3)[C@@H](C2)[C@H]1Nc1nc(Cl)ncc1F): 15.1%; Kinase Inhibition Profile (not incl. Aurora) # kinases hit/# kinases tested [2]: 1/76 at 1 μM
NC(=O)[C@H]1[C@@H]2C[C@H]3CNS(=O)(=O)Cc4cccc(c4)Nc4ncc(F)c(n4)N[C@@H]1[C@@H]3C2 | 1 to 100 | 101 to 1000 | 1000 to 6250 | 1000 to 6250 | ring closure, yield of all isomers ([1]; from NC(=O)[C@H]1[C@@H]2C[C@@H](CNS(=O)(=O)Cc3cccc(N)c3)[C@@H](C2)[C@H]1Nc1nc(Cl)ncc1F): 6.3%
NC(=O)[C@H]1[C@@H]2C[C@H]3CNC(=O)Cn4cnc(c4)Nc4ncc(F)c(n4)N[C@@H]1[C@@H]3C2 | 1000 to 6250 | 1000 to 6250 |  |  | ring closure, yield of all isomers ([1]; from NC(=O)[C@H]1[C@@H]2C[C@@H](CNC(=O)Cn3cnc([N+](=O)[O-])c3)[C@@H](C2)[C@H]1Nc1nc(Cl)ncc1F, 2 steps): 46.6%
NC(=O)[C@H]1[C@@H]2C[C@H]3CNCC(O)c4cccc(c4)Nc4ncc(F)c(n4)N[C@@H]1[C@@H]3C2 (stereo partly drawn) | 101 to 1000 |  |  |  | ring closure, yield of all isomers ([1]; from NC(=O)[C@H]1[C@@H]2C[C@@H](CNCC(O)c3cccc(N)c3)[C@@H](C2)[C@H]1Nc1nc(Cl)ncc1F, HCl): 43.9%
NC(=O)[C@H]1[C@@H]2C[C@H]3CNCC(=O)Nc4cccc(c4)Nc4ncc(F)c(n4)N[C@@H]1[C@@H]3C2 | 101 to 1000 | 101 to 1000 |  |  | ring closure, yield of all isomers ([1]; from NC(=O)[C@H]1[C@@H]2C[C@@H](CNCC(=O)Nc3cccc(N)c3)[C@@H](C2)[C@H]1Nc1nc(Cl)ncc1F): 44%
NC(=O)[C@H]1[C@H]2C[C@H]3[C@H]1Nc1nc(ncc1F)Nc1cccc(c1)CC(=O)N[C@@H]3C2 | 1 to 100 | 1 to 100 |  |  | ring closure, yield of all isomers ([1]; from NC(=O)[C@H]1[C@H]2C[C@@H]([C@H]1Nc1nc(Cl)ncc1F)[C@H](NC(=O)Cc1cccc(N)c1)C2): 8.1%
CN1CCN(c2ccc3cc2CC(=O)N[C@@H]2C[C@@H]4C[C@H]2[C@@H](Nc2nc(ncc2F)N3)[C@H]4C(N)=O)CC1 | 1 to 100 | 1 to 100 |  |  | ring closure, yield of all isomers ([1]; from CN1CCN(c2ccc(N)cc2CC(=O)N[C@@H]2C[C@@H]3C[C@H]2[C@@H](Nc2nc(Cl)ncc2F)[C@H]3C(N)=O)CC1): 5.3%
NC(=O)[C@H]1[C@H]2C[C@H]3[C@H]1Nc1nc(ncc1F)Nc1cccc(c1)CNC(=O)N[C@@H]3C2 | 1 to 100 | 1 to 100 | 1000 to 6250 | 1000 to 6250 | ring closure, yield of all isomers ([1]; from NC(=O)[C@H]1[C@H]2C[C@@H]([C@H]1Nc1nc(Cl)ncc1F)[C@H](NC(=O)NCc1cccc(N)c1)C2): 36.7%
NC(=O)[C@H]1[C@H]2C[C@H]3[C@H]1Nc1nc(ncc1F)Nc1cccc(c1)COC(=O)N[C@@H]3C2 | 1 to 100 | 1 to 100 | 1000 to 6250 | 1000 to 6250 | ring closure, yield of all isomers ([1]; from NC(=O)[C@H]1[C@H]2C[C@@H]([C@H]1Nc1nc(Cl)ncc1F)[C@H](NC(=O)OCc1cccc(N)c1)C2): 3.3%
CN1CCN(c2ccc3cc2COC(=O)N[C@@H]2C[C@@H]4C[C@H]2[C@@H](Nc2nc(ncc2F)N3)[C@H]4C(N)=O)CC1 | 1 to 100 | 1 to 100 | 101 to 1000 | 101 to 1000 | ring closure, yield of all isomers ([1]; from CN1CCN(c2ccc(N)cc2COC(=O)N[C@@H]2C[C@@H]3C[C@H]2[C@@H](Nc2nc(Cl)ncc2F)[C@H]3C(N)=O)CC1, HCl): 8.7%
NC(=O)[C@H]1[C@H]2C[C@H]3[C@H]1Nc1nc(ncc1F)Nc1cccc(c1)CCS[C@@H]3C2 [Example 18] |  |  |  |  | IC50 (FAK(h)): 101 to 1000 nM; IC50 (IRAK4(h)): 1 to 100 nM; IC50 (Pyk2(h)): 101 to 1000 nM; IC50 (Ret(h)): 1000 to 6250 nM; IC50 (Tie2(h)): 1000 to 6250 nM
